This passage reports IC50 results from patent EP4755888A1 (ILAb Co., Ltd., priority 2023, dated 2025).

The target of the assay is PD-1/PD-L1 (Homo sapiens, UniProt Q9NZQ7). Briefly: TR-FRET PD-1/PD-L1 binding inhibition at the molecular level (free proteins). Particulars: Tag1-PD-L1 and Tag2-PD-1 proteins, twelve concentrations from 200 nM, 2 hours at room temperature, read-out: FRET assay (IC50). A digest of the protocol: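 HTRF read-out at 665/620 nm after 2 h at room temperature. Detection used anti-Tag1 Eu cryptate plus anti-Tag2 XL665 antibodies. Tagged PD-L1 and PD-1 proteins were pre-mixed with compound across twelve […] 1:2 dilutions starting at 200 nM.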
Sequence of PD-1/PD-L1 (Q9NZQ7 19-238 limits assumed): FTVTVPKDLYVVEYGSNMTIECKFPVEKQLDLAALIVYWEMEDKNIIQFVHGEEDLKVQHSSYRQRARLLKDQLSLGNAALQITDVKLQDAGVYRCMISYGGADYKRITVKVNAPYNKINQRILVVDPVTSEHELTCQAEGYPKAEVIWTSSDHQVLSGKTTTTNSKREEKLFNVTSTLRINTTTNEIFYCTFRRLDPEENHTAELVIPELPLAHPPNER
In the case of `O=C(O)CN[C@H]1CCCn2nc(C(=O)Nc3cccc(-c4cccc(Nc5nc(C(F)F)nc6cc(CN7CC[C@@H](O)C7)cnc56)c4Cl)c3Cl)cc21` [Compound 293, 2-(((S)-2-((2,2'-dichloro-3'-((2-(difluoromethyl)-7-(((R)-3-hydroxypyrrolidin-1-yl)methyl)pyrido[3,2-d]pyrimidin-4-yl)amino)-[1,1'-biphenyl]-3-yl)carbamoyl)-4,5,6,7-tetrahydropyrazolo[1,5-a]pyridin-4-yl)amino)acetic acid], the half-maximal inhibitory concentration (IC50) fell in the range of 10 to 100 nM. For `Cc1c(NC(=O)c2ccc(CN3CC[C@@H](O)C3)cn2)cccc1-c1cccc(NC(=O)c2cc3n(n2)CCC[C@H]3N2CCC[C@@H]2CO)c1C` [Compound 310-1], the IC50 was below 10 nM. With `Cc1c(NC(=O)c2cc3n(n2)CCC[C@@H]3N2CCC(O)CC2)cccc1-c1cccc(Nc2nc(C(F)(F)F)nc3cccnc23)c1C` [Compound 285, (S)-N-(2,2'-dimethyl-3'-((2-(trifluoromethyl)pyrido[3,2-d]pyrimidin-4-yl)amino)-[1,1'-biphenyl]-3-yl)-4-(4-hydroxypiperidin-1-yl)-4,5,6,7-tetrahydropyrazolo[1,5-a]pyridine-2-carboxamide] the figure was 10 to 100 nM; with `O=C(Nc1cccc(-c2cccc(Nc3nc(C(F)F)nc4cccnc34)c2Cl)c1Cl)c1cc2n(n1)CCC[C@@H]2N1CCC(O)CC1` (stereo in doubt) [Compound 306, (S)-N-(2,2'-dichloro-3'-((2-(difluoromethyl)pyrido[3,2-d]pyrimidin-4-yl)amino)-[1,1'-biphenyl]-3-yl)-4-(4-hydroxypiperidin-1-yl)-4,5,6,7-tetrahydropyrazolo[1,5-a]pyridine-2-carboxamide], 10 to 100 nM. The same measure for `O=C(Nc1cccc(-c2cccc(Nc3nc(C(F)(F)F)nc4cccnc34)c2Cl)c1Cl)c1cc2n(n1)CCC[C@H]2N1CC(C(=O)O)C1` [Compound 278, (R)-1-(2-((2,2'-dichloro-3'-((2-(trifluoromethyl)pyrido[3,2-d]pyrimidin-4-yl)amino)-[1,1'-biphenyl]-3-yl)carbamoyl)-4,5,6,7-tetrahydropyrazolo[1,5-a]pyridin-4-yl)azetidine-3-carboxylic acid]: 10 to 100 nM. With `CC(C)(NC1CCCn2nc(C(=O)Nc3cccc(-c4cccc(NC(=O)c5ccc(CNCCO)cn5)c4Cl)c3Cl)cc21)C(=O)O` (centres unmarked) [Compound 90, 2-((2-((2,2'-dichloro-3'-(5-(((2-hydroxyethyl)amino)methyl)picolinamido)-[1,1'-biphenyl]-3-yl)carbamoyl)-4,5,6,7-tetrahydropyrazolo[1,5-a]pyridin-4-yl)amino)-2-methylpropanoic acid] the figure was below 10 nM. As to `Cc1c(NC(=O)c2cc3n(n2)CCCC3NCC(=O)O)cccc1-c1cccc(NC(=O)c2nc3c(n2C)CCN(CCC24CCC(C(=O)O)(CC2)C4)C3)c1C` (centres unmarked) [Compound 50, 4-(2-(2-((3'-(4-((carboxymethyl)amino)-4,5,6,7-tetrahydropyrazolo[1,5-a]pyridine-2-carboxamido)-2,2'-dimethyl-[1,1'-biphenyl]-3-yl)carbamoyl)-1-methyl-6,7-dihydro-1H-imidazo[4,5-c]pyridin-5(4H)-yl)ethyl)bicyclo[2.2.1]heptane-1-carboxylic acid], the IC50 is below 10 nM. The same measure for `O=C(Nc1cccc(-c2cccc(NC(=O)c3ncc(CNCCO)cc3F)c2Cl)c1Cl)c1cc2n(n1)CCCC2N1CC[C@@H](C(=O)O)C1` (stereo partly drawn) [Compound 201, (3R)-1-(2-((2,2'-dichloro-3'-(3-fluoro-5-(((2-hydroxyethyl)amino)methyl)picolinamido)-[1,1'-biphenyl]-3-yl)carbamoyl)-4,5,6,7-tetrahydropyrazolo[1,5-a]pyridin-4-yl)pyrrolidine-3-carboxylic acid]: below 10 nM. The same measure for `COc1cc(C(=O)Nc2cccc(-c3cccc(NC(=O)c4cc5n(n4)CCCC5NCC(=O)O)c3Cl)c2Cl)cc(F)c1CN1CC[C@@H](C(=O)O)C1` (stereo partly drawn) [Compound 193, (3R)-1-(4-((3'-(4-((carboxymethyl)amino)-4,5,6,7-tetrahydropyrazolo[1,5-a]pyridine-2-carboxamido)-2,2'-dichloro-[1,1'-biphenyl]-3-yl)carbamoyl)-2-fluoro-6-methoxybenzyl)pyrrolidine-3-carboxylic acid]: below 10 nM; for `CC(C)(N[C@@H]1CCCn2nc(C(=O)Nc3cccc(-c4cccc(Nc5nc(C(F)(F)F)nc6cccnc56)c4Cl)c3Cl)cc21)C(=O)O` [Compound 276, (R)-2-((2-((2,2'-dichloro-3'-((2-(trifluoromethyl)pyrido[3,2-d]pyrimidin-4-yl)amino)-[1,1'-biphenyl]-3-yl)carbamoyl)-4,5,6,7-tetrahydropyrazolo[1,5-a]pyridin-4-yl)amino)-2-methylpropanoic acid]: below 10 nM; for `CC(=O)NCCNC1CCCn2nc(C(=O)Nc3cccc(-c4cccc(Nc5nc(C(F)F)nc6cc(CN7CC[C@@H](O)C7)cnc56)c4C)c3C)cc21` (stereo partly drawn) [Compound 130, 4-((2-acetamidoethyl)amino)-N-(3'-((2-(difluoromethyl)-7-(((R)-3-hydroxypyrrolidin-1-yl)methyl)pyrido[3,2-d]pyrimidin-4-yl)amino)-2,2'-dimethyl-[1,1'-biphenyl]-3-yl)-4,5,6,7-tetrahydropyrazolo[1,5-a]pyridine-2-carboxamide]: 10 to 100 nM. With `Cc1c(NC(=O)c2cc3n(n2)CCCC3NCC(=O)O)cccc1-c1cccc(Nc2nccc3cc(CN4CC[C@@H](O)C4)cnc23)c1Cl` (stereo partly drawn) [Compound 41, 2-((2-((2'-chloro-3'-((3-(((R)-3-hydroxypyrrolidin-1-yl)methyl)-1,7-naphthyridin-8-yl)amino)-2-methyl-[1,1'-biphenyl]-3-yl)carbamoyl)-4,5,6,7-tetrahydropyrazolo[1,5-a]pyridin-4-yl)amino)acetic acid] the figure was below 10 nM; with `O=C1CC[C@@H](CNC2CCCn3nc(C(=O)Nc4cccc(-c5cccc(Nc6nccc7cc(CN8CC[C@@H](O)C8)cnc67)c5Cl)c4Cl)cc32)N1` (stereo partly drawn) [Compound 21, N-(2,2'-dichloro-3'-((3-(((R)-3-hydroxypyrrolidin-1-yl)methyl)-1,7-naphthyridin-8-yl)amino)-[1,1'-biphenyl]-3-yl)-4-((((S)-5-oxopyrrolidin-2-yl)methyl)amino)-4,5,6,7-tetrahydropyrazolo[1,5-a]pyridine-2-carboxamide], 10 to 100 nM.

As for `COc1cc(-c2cccc(-c3cccc(NC(=O)c4cc5n(n4)CCCC5N4CC[C@@H](O)C4)c3Cl)c2Cl)cc(F)c1CNCCNC(C)=O` (stereo partly drawn) [Compound 121, N-(4"-(((2-acetamidoethyl)amino)methyl)-2,2'-dichloro-3"-fluoro-5"-methoxy-[1,1':3',1"-terphenyl]-3-yl)-4-((R)-3-hydroxypyrrolidin-1-yl)-4,5,6,7-tetrahydropyrazolo[1,5-a]pyridine-2-carboxamide], the 50% inhibitory concentration (IC50) is below 10 nM.

Regarding `COc1cc(-c2cccc(-c3cccc(NC(=O)c4cc5n(n4)CCC[C@H]5NCC(=O)O)c3Cl)c2Cl)cc(F)c1CN1CC[C@@H](O)C1` [Compound 248, 2-(((R)-2-((2,2'-dichloro-3"-fluoro-4"-(((R)-3-hydroxypyrrolidin-1-yl)methyl)-5"-methoxy-[1,1':3',1"-terphenyl]-3-yl)carbamoyl)-4,5,6,7-tetrahydropyrazolo[1,5-a]pyridin-4-yl)amino)acetic acid], the IC50 is below 10 nM. With `Cn1c(C(=O)Nc2cccc(-c3cccc(NC(=O)c4cc5n(n4)CCCC5N4CCC(O)CC4)c3Cl)c2Cl)nc2c1CCN(CCC13CCC(C(=O)O)(CC1)C3)C2` (centres unmarked) [Compound 58, 4-(2-(2-((2,2'-dichloro-3'-(4-(4-hydroxypiperidin-1-yl)-4,5,6,7-tetrahydropyrazolo[1,5-a]pyridine-2-carboxamido)-[1,1'-biphenyl]-3-yl)carbamoyl)-1-methyl-6,7-dihydro-1H-imidazo[4,5-c]pyridin-5(4H)-yl)ethyl)bicyclo[2.2.1]heptane-1-carboxylic acid] the figure was 10 to 100 nM; with `O=C(Nc1cccc(-c2cccc(Nc3nc(C(F)F)nc4cc(CN5CC(F)C5)cnc34)c2Cl)c1Cl)c1cc2n(n1)CCC[C@H]2N1CCC(O)CC1` [Compound 270, (R)-N-(2,2'-dichloro-3'-((2-(difluoromethyl)-7-((3-fluoroazetidin-1-yl)methyl)pyrido[3,2-d]pyrimidin-4-yl)amino)-[1,1'-biphenyl]-3-yl)-4-(4-hydroxypiperidin-1-yl)-4,5,6,7-tetrahydropyrazolo[1,5-a]pyridine-2-carboxamide], 10 to 100 nM; with `Cc1c(NC(=O)c2cc3n(n2)CCCC3N2CC[C@@H](O)C2)cccc1-c1cccc(NC(=O)c2nc3c(s2)CN(C)CC3)c1C` (stereo partly drawn) [Compound 150, N-(3'-(4-((R)-3-hydroxypyrrolidin-1-yl)-4,5,6,7-tetrahydropyrazolo[1,5-a]pyridine-2-carboxamido)-2,2'-dimethyl-[1,1'-biphenyl]-3-yl)-5-methyl-4,5,6,7-tetrahydrothiazolo[5,4-c]pyridine-2-carboxamide], below 10 nM.

Turning to `O=C(Nc1cccc(-c2cccc(Nc3nc(C(F)(F)F)nc4cccnc34)c2Cl)c1Cl)c1cc2n(n1)CCC[C@H]2N1CCC(O)CC1` [Compound 304, (R)-N-(2,2'-dichloro-3'-((2-(trifluoromethyl)pyrido[3,2-d]pyrimidin-4-yl)amino)-[1,1'-biphenyl]-3-yl)-4-(4-hydroxypiperidin-1-yl)-4,5,6,7-tetrahydropyrazolo[1,5-a]pyridine-2-carboxamide], the half-inhibitory concentration (IC50) lay within 10 to 100 nM. The same measure for `O=C(Nc1cccc(-c2cccc(NC(=O)c3cc4n(n3)CCCC4N3CC[C@@H](C(=O)O)C3)c2Cl)c1Cl)c1ccc(CN2CC[C@@H](O)C2)c(F)n1` (stereo partly drawn) [Compound 203, (3R)-1-(2-((2,2'-dichloro-3'-(6-fluoro-5-(((R)-3-hydroxypyrrolidin-1-yl)methyl)picolinamido)-[1,1'-biphenyl]-3-yl)carbamoyl)-4,5,6,7-tetrahydropyrazolo[1,5-a]pyridin-4-yl)pyrrolidine-3-carboxylic acid]: below 10 nM.

A word on the IC50: it is the concentration at which inhibition is half-maximal.
